Read-outs that look alike come from different tables or passages of the source. Blank lines part the entries; values can stand above or below the molecule they belong to. No end group written: not given here.
Tests used:
MrgX1 = target: T1, MrgX1 (Homo sapiens, UniProt Q96LB2); assay: Calcium flux in CHO-K1 cells co-transfected with MrgX1 and Gα16; type: cell-based; settings: dose response 1-3000 nM
T1 construct: expressed in transfected cells; host or cells: CHO-K1 (ATCC-CCL-61), transient co-transfection
T1 sequence (Q96LB2 whole entry): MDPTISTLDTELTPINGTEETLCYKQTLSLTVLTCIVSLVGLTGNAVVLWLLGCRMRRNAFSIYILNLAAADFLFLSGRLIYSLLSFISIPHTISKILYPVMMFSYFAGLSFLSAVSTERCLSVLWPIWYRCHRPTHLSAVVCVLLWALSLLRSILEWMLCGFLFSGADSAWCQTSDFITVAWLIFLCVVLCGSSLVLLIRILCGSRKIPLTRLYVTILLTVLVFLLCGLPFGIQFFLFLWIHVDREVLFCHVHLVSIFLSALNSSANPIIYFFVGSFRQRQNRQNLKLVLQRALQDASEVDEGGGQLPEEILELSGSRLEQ
Description: (§1) The assay was carried out in CHO cells were transiently transfected with the GPCR of choice, by utilizing the promiscuous Gα16 to divert signaling to the Gq pathway, thus enabling readout of GPCR activation by testing for Calcium flux as described by Liu et al 2003 (Biomol Screen 8, 39-49).
(§2) All the peptides thus obtained were tested for their ability to change calcium flux in CHO—K1 cells (ATCC-CCL-61) transiently co-transfected with an expression vector containing the GPCR of choice and expression vector containing the Gα16 encoding cDNA. Expression constructs containing cDNA clones for MrgX1, MrgX2, Mas or FPRL1 were commercially obtained in one of the following expression vectors: pcDNA3.1, pCMV6, or MO2.
Transient transfections were performed using CHO—K1 cells as host cells. […]
On the day of the experiment, cells were loaded with Fluo4-NW (Invitrogen) according to the manufacturer's recommendation. Plates were loaded into a FlexStation™ (Molecular Devices) plate reader and fluorescence was monitored. Seventeen seconds following initiation of reading, cells were stimulated with the indicated agonist/compound at final concentration of 1 μM. […]
Based on dose response experiments, EC50 best fit values were calculated by non-linear regression of sigmoidal dose-response curves, using Prism version 4 (GraphPad Software Inc., San Diego, Calif.). […]

[1] = system: Isoproterenol induced rats; assay: Cardiac remodeling induced by Isoproterenol; type: in vivo, Wistar rats; settings: isoproterenol 2 mg/kg/day s.c. 7 days; peptides 1 ug/hour/Kg osmotic minipump; Losartan 1 mg/kg once a day by gavage
Description: The effect of the peptides […] (SEQ ID NO:10), […]-dimer ([…]) (SEQ ID […]), P33_V (SEQ ID NO:7), P33-dimer (P33_D) (SEQ ID NO:6) on cardiac remodeling, was tested by determining their effect on heart hypertrophy and fibrosis (deposition of collagen I, III, and fibronectin) induced by Isoproterenol. Losartan (an antagonist of the known angiotensin II receptor, AT1, Kucharewicz et al., 2002; Hypertension, (40): 774-779) was used as positive control. The negative control group was treated with vehicle only. Additional control groups included rats not-treated with isoproterenol which were treated with the peptides, with Losartan or with the vehicle. The analysis included determination of the left ventricle mass and morphometry. In addition, immunofuorescence analysis of fibronectin and collagens I and III deposition was performed by confocal microscopy. Animals Acclimatization: Male Wistar rats Age: 13-14 weeks (250 to 300 g) were maintained in the animal facilities for 7 days before the beginning of the experiment. The animals were exposed to a brightness circle of light-dark cycle of 12 hs (day-06:00 to 18:00; night-18:00 to 06:00), and the room temperature was kept at 23±2° C. Heart failure was induced by daily injections of isoproterenol (2 mg/kg/day, subcutaneously) during 7 days. […] Immunofluorescence-labeling and quantitative confocal microscopy was used to investigate the distribution and quantity of collagen types I, III and fibronectin present in the left ventricles. […] Optimal confocal settings (aperture, gain and laser power) were determined at the beginning of each imaging session and then held constant during the analysis of all the samples. […] For quantitative analysis of collagens I, III, and fibronectin, the ImageTool 2.0 image analysis program was used ([…].edu/[…]) to measure the fluorescence intensity in images randomly selected. […]

MrgX2 = target: T2, MrgX2 (Homo sapiens, UniProt Q96LB1); assay: Calcium flux in CHO-K1 cells co-transfected with MrgX2 and Gα16; type: cell-based; settings: for calcium flux relative to the negative control: 1 μM, about 20 to 90 seconds; for eliciting calcium flux compared to cortistatin-14: MrgX2-expressing cells, summary statement
T2 construct: expressed in transfected cells; host or cells: CHO-K1 (ATCC-CCL-61), transient co-transfection
T2 sequence (Q96LB1 1-330): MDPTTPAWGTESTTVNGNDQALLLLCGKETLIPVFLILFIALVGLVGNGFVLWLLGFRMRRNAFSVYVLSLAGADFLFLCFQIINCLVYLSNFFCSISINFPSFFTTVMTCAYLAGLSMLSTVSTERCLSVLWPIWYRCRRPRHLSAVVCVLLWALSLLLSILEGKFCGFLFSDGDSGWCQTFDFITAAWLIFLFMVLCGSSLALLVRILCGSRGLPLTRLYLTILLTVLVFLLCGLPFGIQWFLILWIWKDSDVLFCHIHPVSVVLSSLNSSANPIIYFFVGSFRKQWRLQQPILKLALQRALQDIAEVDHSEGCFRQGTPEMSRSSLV
Description: as §1, §2
(§3) Transient transfections were performed using CHO—K1 cells as host cells. Cells (12 million) were plated into T75 flasks on the day preceding transfection. Cells were transfected with the appropriate GPCR expression vector and with a vector expressing Gα16 using a lipid-based reagent, MTI, according to the manufacturer's recommendation. Cells were transfected for 5 hours, then re-plated into 96-well dishes (60,000 cells per well) and grown overnight.
(§4) On the day of the experiment, cells were loaded with Fluo4-NW (Invitrogen) according to the manufacturer's recommendation. Plates were loaded into a FlexStation™ (Molecular Devices) plate reader and fluorescence was monitored. Seventeen seconds following initiation of reading, cells were stimulated with the indicated agonist/compound at final concentration of 1 μM. Each 96 well plate contained cells transfected with one GPCR expression vector and each of the examined peptides was tested in triplicate.
(§5) We defined a hit as a peptide which elicited a clear and distinct increase in intracellular calcium that is clearly visible and statistically significant upon examination of the calcium trace for at least two repeats. The criterion for statistical significance was a p-value lower than 0.001 in a t-test comparing the levels of calcium before and after peptide addition.
(§6) Based on dose response experiments, EC50 best fit values were calculated by non-linear regression of sigmoidal dose-response curves, using Prism version 4 (GraphPad Software Inc., San Diego, Calif.). The formulae for the sigmoidal dose-response curves was defined as Y=Bottom+(Top−Bottom)/(1+10^ (LogEC50−X)*HillSlope))
The ability of Peptides to change calcium flux was examined in CHO—K1 cells co-transfected with MrgX2 and Gal 6.

FPRL1 = target: T3, FPRL1 (Homo sapiens, UniProt P25090); assay: Calcium flux in CHO-K1 cells co-transfected with FPRL1 and Gα16; type: cell-based; parameters: expressed in transfected cells; host or cells: CHO-K1 (ATCC-CCL-61), transient co-transfection; settings: for calcium flux, P58 and derivatives: dose response
T3 sequence (P25090 1-351): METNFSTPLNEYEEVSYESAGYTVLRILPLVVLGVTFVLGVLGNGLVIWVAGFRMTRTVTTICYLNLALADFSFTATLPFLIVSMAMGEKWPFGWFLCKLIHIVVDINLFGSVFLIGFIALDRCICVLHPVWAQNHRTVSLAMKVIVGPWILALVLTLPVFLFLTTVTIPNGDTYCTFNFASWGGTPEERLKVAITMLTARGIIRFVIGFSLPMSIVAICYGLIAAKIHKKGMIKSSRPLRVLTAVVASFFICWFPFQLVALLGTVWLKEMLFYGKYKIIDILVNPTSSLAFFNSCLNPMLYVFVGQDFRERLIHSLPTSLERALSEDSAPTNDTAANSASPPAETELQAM
Description: as §1, §2, §3, §4, §5, §6
The ability of Peptides to change calcium flux was examined in CHO—K1 cells co-transfected with FPRL1 and Gal 6.

[2] = system: Zymosan-induced murine dorsal air pouch model; type: in vivo, mice; settings: 4 h; for inhibition of zymosan-induced neutrophil (GR-1+) accumulation: FACS
Description: The anti-inflammatory activity of P58 shorter derivatives was tested in the same model of acute inflammation used in Example 6, the Zymosan-induced murine dorsal air pouch model.
Male out-bred Swiss albino mice were purchased from Harlan, UK (T.O. strain) and maintained on a standard chow pellet diet with tap water ad libitum and a 12:00 h light/dark cycle. All animals were housed for 7 days prior to experimentation to allow body weight to reach ˜25 g on the day of the experiment.
Drugs were stored at −20° C. and defrosted on the day of the experiment. Peptide P58 (SEQ ID NO:1) was provided lyophilized; it was taken back to room temperature and dissolved with sterile PBS before use to make an initial 1 mg/ml solution. Peptide P58-4 (SEQ ID NO:2) was provided lyophilized; it was taken back to room temperature and dissolved with sterile PBS before use to make an initial 327 μg/ml solution. Peptide P58-5 (SEQ ID NO:3) was provided lyophilized; it was taken back to room temperature and dissolved with sterile PBS before use to make an initial 476 μg/ml solution. Vehicle consisted of sterile pyrogen free PBS (Gibco, cat no. 14190-094). Once dissolved, peptides P58 (SEQ ID NO:1), P58-4 (SEQ ID NO:2) and P58-5 (SEQ ID NO:3) gave a clear solution. Drugs or vehicle were administered i.v. at a final volume of 200 μl in the doses described below.
Lavage fluids were kept all the time on ice, then used to determine the number of migrated leukocytes, by taking an aliquot (100 μl) and diluting it 1:10 in Turk's solution (0.01% crystal violet in 3% acetic acid). The samples were then vortexed and 10 μl of the stained cell solution were placed in a Neubauer haematocymometer. Differential cell count was done using a light microscope (Olympus B061). In view of their chromatic characteristics and their nucleus and cytoplasm appearance, polymorphonuclear leukocytes (PMN; >95% neutrophils) could be easily identified.
For FACS analyses, an aliquot of lavage fluid was stained with the PE-conjugated anti-GR-1 monoclonal antibody (1:100 dilution, eBiosciences; Cat 11-5931) to mark polymorphonuclear leukocytes. Staining was performed at 4° C. Flow cytometry was performed using FACScan analyser (Becton Dickinson, Cowley, UK) with air-cooled 100 mW argon laser tuned to 488 nm connected to an Apple Macintosh G3 computer running Cell Quest II software. Forward and sidescatter characteristics were initially used to distinguish between the three distinct cell populations (lymphocytes, monocytes and granulocytes). Cells positive for GR-1 were detected in the FL2 channel (wavelength of 548 nm). Data are expressed as percentage of positive cells (in relation to the specific mAb). Determination of positive and negative populations was performed based on the control staining with irrelevant IgG isotype (rat IgG2b) labelled with PE. Once determined, quadrants were rigorously maintained for all analyses.
Data are shown for single mice, and also shown as mean±S.E. of (n) mice per group. Statistical differences were determined by ANOVA, plus Student Newman Keuls test. A P value<0.05 was taken as significant.

Molecule: CSCC[C@H](NC(=O)[C@H](Cc1ccccc1)NC(=O)CNC(=O)CNC(=O)[C@@H](N)Cc1ccc(O)cc1)C(=O)N[C@@H](CCCNC(=N)N)C(=O)N[C@@H](CCCNC(=N)N)C(=O)N[C@H](C(=O)NCC(=O)N[C@@H](CCCNC(=N)N)C(=O)N1CCC[C@H]1C(=O)N[C@@H](CCC(=O)O)C(=O)N[C@@H](Cc1c[nH]c2ccccc12)C(=O)N[C@@H](Cc1c[nH]c2ccccc12)C(=O)N[C@@H](CCSC)C(=O)N[C@@H](CC(=O)O)C(=O)N[C@@H](Cc1ccc(O)cc1)C(=O)N[C@@H](CCC(N)=O)C(=O)N[C@@H](CCCCN)C(=O)N[C@@H](CCCNC(=N)N)C(=O)N[C@@H](Cc1ccc(O)cc1)C(=O)NCC(=O)O)C(C)C [BAM22, reference compound]
EC50 (MrgX1): ≥ 50 nM

Molecule: CCCCc1nc(Cl)c(CO)n1Cc1ccc(-c2ccccc2-c2nn[nH]n2)cc1 [Losartan, reference compound]
effect on Isoproterenol induced raise in the left ventricle to body mass ratio (LV/BW) [1]: did not have an effect

calcium flux relative to the negative control (MrgX2): increased calcium flux
eliciting calcium flux compared to cortistatin-14 (MrgX2): superior to cortistatin-14
calcium flux relative to the negative control (FPRL1; 1 μM, three wells, about 20 to 90 seconds): increased calcium flux
Molecule: AAQATGPLQDNELPGLDERPPRAHAQHFHKHQLWPSPFRALKPRP (listed as Homo sapiens) [Peptide P94]

calcium flux relative to the negative control (MrgX2): increased calcium flux
eliciting calcium flux compared to cortistatin-14 (MrgX2): superior to cortistatin-14
Molecule: AHAQHFHKHQLWPSPFRALKPRP (listed as Homo sapiens) [Peptide 63]

calcium flux, P58 and derivatives (FPRL1): elicited calcium flux
Molecule: FTSWFM-amide (FTSWFM-NH2; listed as Homo sapiens) [P58—4]
inhibition of leukocyte accumulation triggered by zymosan A ([2]; 20 nmole/mouse i.v.): 35%
inhibition of leukocyte accumulation triggered by zymosan A ([2]; 80 nmole/mouse i.v.): 47%
inhibition of zymosan-induced neutrophil (GR-1+) accumulation ([2]; 80 nmole/mouse i.v.): 49%

EC50 (MrgX1): ≥ 300 nM
Molecule: GIGSVWHWKHRVATRFTLPRFLQ [Peptide P60_S]

calcium flux, P58 and derivatives (FPRL1): elicited calcium flux
Molecule: LQKFTSWFM-amide (LQKFTSWFM-NH2; listed as Homo sapiens) [P58—5]
inhibition of leukocyte accumulation triggered by zymosan A ([2]; 20 nmole/mouse i.v.): did not inhibit leukocyte migration
inhibition of zymosan-induced neutrophil (GR-1+) accumulation ([2]; 20 nmole/mouse i.v.): weak effect
inhibition of leukocyte accumulation triggered by zymosan A ([2]; 80 nmole/mouse i.v.): 29%

Reference: patent publication US8349801B2, “Peptide ligands for G-protein coupled receptors” (priority 2006, dated 2013)
